{"source": "ChEMBL document CHEMBL1143489", "about": "“Design, synthesis, and enzymatic property of a sulfur-substituted analogue of trigalacturonic acid” (Bioorg Med Chem Lett, 2005)", "biological_target": "T1, Endopolygalactyuronase (Chondrostereum purpureum, UniProt P79074)", "T1 sequence (P79074 whole entry)": "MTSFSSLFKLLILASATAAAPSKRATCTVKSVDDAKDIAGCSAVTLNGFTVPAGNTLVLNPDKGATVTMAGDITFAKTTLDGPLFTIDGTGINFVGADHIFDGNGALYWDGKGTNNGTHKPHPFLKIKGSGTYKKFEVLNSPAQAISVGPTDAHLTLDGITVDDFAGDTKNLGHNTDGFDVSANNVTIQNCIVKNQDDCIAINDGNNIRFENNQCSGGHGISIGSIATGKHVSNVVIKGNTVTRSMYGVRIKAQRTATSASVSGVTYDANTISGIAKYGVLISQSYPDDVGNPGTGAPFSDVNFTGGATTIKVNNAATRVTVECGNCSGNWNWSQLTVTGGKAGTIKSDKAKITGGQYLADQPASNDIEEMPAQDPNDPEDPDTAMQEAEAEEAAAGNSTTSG", "test": "Dissociation constant against endo-polygalacturonase 1", "data": [{"smiles": "CO[C@H]1O[C@@H](C(=O)O)[C@H](S[C@H]2O[C@@H](C(=O)O)[C@H](O[C@H]3O[C@@H](C(=O)O)[C@H](O)[C@H](O)[C@@H]3O)[C@H](O)[C@@H]2O)[C@H](O)[C@@H]1O", "values": [{"measurement": "Kd", "value": 200, "unit": "nM"}]}]}
